According to ChEMBL document CHEMBL1201862, “PubChem BioAssay data set” (2004):
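Cultured in 96-well plates, cells were exposed to test compound for 48 hours across five concentrations. GI50 = concentration required for 50% inhibition of growth.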 Calls of active or inactive are those of the source. Rule as the data show it: active = GI50 up to about 1.1 µM and inactive = higher.

Legend:
Experiment in all cases: DTP human tumour cell line panel, 48 h
786-0 = test system: 786-0
SK-MEL-5 = test system: SK-MEL-5
SK-MEL-2 = test system: SK-MEL-2
HL-60 = test system: HL-60
HOP-92 = test system: HOP-92
SNB-19 = test system: SNB-19
SF-268 = test system: SF-268
OVCAR-5 = test system: OVCAR-5
TK-10 = test system: TK-10
NCI-H226 = test system: NCI-H226
PC-3 = test system: PC-3
SK-OV-3 = test system: SK-OV-3
A498 = test system: A498
UO-31 = test system: UO-31
SW-620 = test system: SW-620
M14 = test system: M14
RXF 393 = test system: RXF 393
HCT-15 = test system: HCT-15
SR = test system: SR
SF-539 = test system: SF-539

SMILES	GI50 (786-0)	GI50 (SK-MEL-5)	GI50 (SK-MEL-2)	GI50 (HL-60)	GI50 (HOP-92)	GI50 (SNB-19)	GI50 (SF-268)	GI50 (OVCAR-5)	GI50 (TK-10)	GI50 (NCI-H226)	GI50 (PC-3)	GI50 (SK-OV-3)	GI50 (A498)	GI50 (UO-31)	GI50 (SW-620)	GI50 (M14)	GI50 (RXF 393)	GI50 (HCT-15)	GI50 (SR)	GI50 (SF-539)
Cc1cc(C)c2c(SCc3ccc(Cl)cc3Cl)nc(N)nc2n1	17.1 µM (inactive)	> 100 µM (inactive)	50.1 µM (inactive)	> 100 µM (inactive)	15.9 µM (inactive)	58.9 µM (inactive)	> 100 µM (inactive)	> 100 µM (inactive)	17.6 µM (inactive)	> 100 µM (inactive)	35.6 µM (inactive)	> 100 µM (inactive)	> 100 µM (inactive)	23.5 µM (inactive)	> 100 µM (inactive)	82.6 µM (inactive)	> 100 µM (inactive)	> 100 µM	33 µM (inactive)	–
Cc1c(NC(=S)Nc2ccc([N+](=O)[O-])cc2)c(=O)n(-c2ccccc2)n1C	> 100 µM (inactive)	> 100 µM (inactive)	–	> 100 µM (inactive)	> 100 µM (inactive)	> 100 µM (inactive)	> 100 µM (inactive)	> 100 µM (inactive)	> 100 µM (inactive)	> 100 µM (inactive)	> 100 µM (inactive)	> 100 µM (inactive)	> 100 µM (inactive)	> 100 µM (inactive)	> 100 µM (inactive)	> 100 µM (inactive)	> 100 µM (inactive)	> 100 µM	> 100 µM (inactive)	> 100 µM (inactive)
COC(=O)[C@]1(NC(=O)c2ccccc2)C[C@H]1C=O	> 100 µM (inactive)	> 100 µM (inactive)	> 100 µM (inactive)	–	> 100 µM (inactive)	> 100 µM (inactive)	> 84.5 µM (inactive)	> 100 µM (inactive)	> 100 µM (inactive)	46.7 µM (inactive)	> 100 µM (inactive)	93.8 µM (inactive)	> 71.8 µM (inactive)	> 100 µM (inactive)	> 100 µM (inactive)	> 100 µM (inactive)	> 100 µM (inactive)	> 90.6 µM	28.2 µM (inactive)	> 100 µM (inactive)
CCOC(=O)CN1CCNCCN(CC(=O)OCC)CCNCC1	> 100 µM (inactive)	> 100 µM (inactive)	> 100 µM (inactive)	> 100 µM (inactive)	> 100 µM (inactive)	> 100 µM (inactive)	–	> 100 µM (inactive)	> 100 µM (inactive)	> 100 µM (inactive)	> 100 µM (inactive)	> 100 µM (inactive)	> 100 µM (inactive)	52.6 µM (inactive)	> 10 µM (inactive)	–	> 100 µM (inactive)	> 100 µM	78.7 µM (inactive)	> 100 µM (inactive)
O=C1c2cc([N+](=O)[O-])ccc2NC2C(O)c3ccccc3N12 (centres undefined)	25.2 µM (inactive)	38 µM (inactive)	33.3 µM (inactive)	–	23.9 µM (inactive)	29 µM (inactive)	27.2 µM (inactive)	> 100 µM (inactive)	13.2 µM (inactive)	29.2 µM (inactive)	53 µM (inactive)	17.7 µM (inactive)	18.3 µM (inactive)	25.9 µM (inactive)	–	47.4 µM (inactive)	16.9 µM (inactive)	29.3 µM	19.3 µM (inactive)	29.3 µM (inactive)
COc1ccc(/C=C2\N=C(SC)N(CN3CCOCC3)C2=O)cc1	70.6 µM (inactive)	47.3 µM (inactive)	> 100 µM (inactive)	56.9 µM (inactive)	5.38 µM (inactive)	84.5 µM (inactive)	48 µM (inactive)	> 100 µM (inactive)	56.5 µM (inactive)	29.2 µM (inactive)	49.2 µM (inactive)	> 100 µM (inactive)	34 µM (inactive)	49.8 µM (inactive)	22 µM (inactive)	55 µM (inactive)	–	30.7 µM	30.8 µM (inactive)	–
CCC1C(=O)C(O)[C@H]2[C@@H]3C(O)CC4=CC(=O)CC[C@]4(C)[C@H]3CC[C@]12C (some centres undefined)	> 50 µM (inactive)	> 50 µM (inactive)	> 50 µM (inactive)	> 50 µM (inactive)	> 50 µM (inactive)	> 50 µM (inactive)	> 50 µM (inactive)	> 50 µM (inactive)	> 50 µM (inactive)	–	> 50 µM (inactive)	> 50 µM (inactive)	> 50 µM (inactive)	> 50 µM (inactive)	> 50 µM (inactive)	> 50 µM (inactive)	–	> 50 µM	> 50 µM (inactive)	> 50 µM (inactive)
CCOC(=O)C(=O)/C(=C\NC(=S)Nc1ccccc1Cl)C(=O)OCC	> 100 µM (inactive)	> 100 µM (inactive)	> 100 µM (inactive)	> 100 µM (inactive)	3.59 µM (inactive)	> 100 µM (inactive)	> 100 µM (inactive)	> 100 µM (inactive)	–	> 100 µM (inactive)	> 100 µM (inactive)	> 100 µM (inactive)	> 100 µM (inactive)	> 100 µM (inactive)	> 100 µM (inactive)	> 100 µM (inactive)	> 100 µM (inactive)	> 100 µM	> 100 µM (inactive)	> 100 µM (inactive)
O=[N+]([O-])c1ccc2c(c1)Sc1ccccc1N2CCCCCl	> 100 µM (inactive)	> 100 µM (inactive)	–	> 100 µM (inactive)	24.9 µM (inactive)	> 100 µM (inactive)	> 100 µM (inactive)	> 100 µM (inactive)	> 100 µM (inactive)	> 100 µM (inactive)	> 100 µM (inactive)	–	> 100 µM (inactive)	> 100 µM (inactive)	> 100 µM (inactive)	–	> 100 µM (inactive)	> 100 µM	> 100 µM (inactive)	> 100 µM (inactive)
CC[C@@]1(C[C@H]2C[C@@]3(C(=O)OC)c4[nH]c5ccccc5c4CCN3C2=S)COC2(CCCCC2)O1	> 100 µM (inactive)	3.12 µM (inactive)	> 100 µM (inactive)	4.06 µM (inactive)	2.62 µM (inactive)	38.5 µM (inactive)	62.5 µM (inactive)	> 100 µM (inactive)	11.2 µM (inactive)	–	4.97 µM (inactive)	> 100 µM (inactive)	88.7 µM (inactive)	7.78 µM (inactive)	3.13 µM (inactive)	23.7 µM (inactive)	59.6 µM (inactive)	5.57 µM	4.44 µM (inactive)	> 100 µM (inactive)
Fc1ccc(/N=C/C=C/Nc2ccc(F)cc2)cc1	4.3 µM (inactive)	4.84 µM (inactive)	13.6 µM (inactive)	2.26 µM (inactive)	17.6 µM (inactive)	13.3 µM (inactive)	13.4 µM (inactive)	12.1 µM (inactive)	–	19.5 µM (inactive)	8.91 µM (inactive)	15.3 µM (inactive)	15.5 µM (inactive)	6.73 µM (inactive)	3.32 µM (inactive)	0.137 µM (active)	15.8 µM (inactive)	0.31 µM	2.44 µM (inactive)	14.1 µM (inactive)
O=c1[nH][nH]c(=O)n1/N=C/c1ccccc1	> 100 µM (inactive)	> 100 µM (inactive)	> 100 µM (inactive)	> 100 µM (inactive)	> 100 µM (inactive)	> 100 µM (inactive)	> 100 µM (inactive)	> 100 µM (inactive)	> 100 µM (inactive)	> 100 µM (inactive)	> 100 µM (inactive)	> 100 µM (inactive)	> 100 µM (inactive)	> 100 µM (inactive)	> 100 µM (inactive)	> 100 µM (inactive)	–	> 100 µM	> 100 µM (inactive)	> 100 µM (inactive)
O=C1/C(=C/c2ccccc2[N+](=O)[O-])N=C(c2ccccc2)N1c1nc2ccccc2s1	21.7 µM (inactive)	25.2 µM (inactive)	33.2 µM (inactive)	26.1 µM (inactive)	21 µM (inactive)	42.6 µM (inactive)	20.5 µM (inactive)	73.6 µM (inactive)	49.2 µM (inactive)	41.3 µM (inactive)	31 µM (inactive)	–	28.1 µM (inactive)	31.6 µM (inactive)	34.4 µM (inactive)	42.7 µM (inactive)	16.9 µM (inactive)	17.5 µM	12.9 µM (inactive)	30.1 µM (inactive)
CN(C)c1ccc(/C=N/NC(=S)Nc2ccccc2)cc1	> 100 µM (inactive)	> 100 µM (inactive)	> 100 µM (inactive)	–	> 100 µM (inactive)	> 100 µM (inactive)	> 100 µM (inactive)	> 100 µM (inactive)	> 100 µM (inactive)	> 100 µM (inactive)	> 100 µM (inactive)	> 100 µM (inactive)	> 100 µM (inactive)	> 100 µM (inactive)	> 100 µM (inactive)	> 100 µM (inactive)	> 100 µM (inactive)	> 100 µM	> 100 µM (inactive)	> 100 µM (inactive)
CCN(CC)CCNc1ccc(/N=N/c2ccc(S(N)(=O)=O)cc2)c2ccccc12	4.62 µM (inactive)	5.06 µM (inactive)	5.9 µM (inactive)	14.5 µM (inactive)	14.9 µM (inactive)	11.9 µM (inactive)	10.1 µM (inactive)	23 µM (inactive)	19.1 µM (inactive)	23.6 µM (inactive)	6.93 µM (inactive)	–	14.1 µM (inactive)	5.56 µM (inactive)	3.3 µM (inactive)	3.72 µM (inactive)	3.61 µM (inactive)	4.52 µM	2.1 µM (inactive)	3.63 µM (inactive)
